Reference: US20110021776A1, “COMPOSITIONS FOR THE TREATMENT OF CENTRAL NERVOUS SYSTEM DISEASES AND DISORDERS” (MediProPharma, Inc., priority 2006, published 2011)
pIC50, pKd: −log10 of the molar value. “And” between values parts separate entries of the source, which are not always exact repeats. Identical values can stand only once. Like-named read-outs stand apart in the source and are kept apart here. Marks after values point to notes of the source that are not given here. Values belong to the compound of their own block, whether it stands above or below them.

Tests used:
[1] = Plasma pharmacokinetics, single dose in rats; format: in vivo, Sprague-Dawley rats; conditions: normal rats; for MRT inf: read-out: MRT0-inf; for MRT last: read-out: MRT0-last; for Vd: read-out: Vdss
Method: (§1) (IV) Pharmacokinetic Studies
(§2) The pharmacokinetic studies in Sprague-Dawley rats were performed using the protocols developed by WuXi AppTec (St. Paul, Minn., USA, and Shanghai, China. http://www.apptecls.com/).

human DYRK1A [2] = target: T1, human DYRK1A (Homo sapiens, UniProt Q13627); experiment: Human DYRK1A kinase functional assay (CEREP, LANCE detection); format: biochemical; parameters: CEREP (France), contract assay provider
Method: (II) Human DYRK1A Kinase Functional Assay and IC50 Measurements.
Compound profiling in a human DYRK1A kinase functional assay was performed by CEREP (France). The effects of compounds on the activity of human DYRK1A were evaluated and quantified by measuring the phosphorylation of the substrate Ulight-CFFKNIVTPRTPPPSQGK-amide (MBP) using a human recombinant enzyme and the LANCE® detection method, as described by Himpel et al, J. Biol. Chem., 275: 2431 (2000). The inhibitory activity of the compounds was expressed as a percent inhibition of the control kinase activity. Activities of the compounds at 50% or higher inhibition were selected for IC50 determination. Compounds were tested at 6 concentrations in duplicate for IC50 determination. The standard inhibitory reference compound was staurosporine, which was tested in each experiment at 8 concentrations to obtain an inhibition curve from which its IC50 value was calculated.
In certain embodiments, compounds have a low IC50 value in the DYRK1A kinase functional assay. […] The human DYRK1A kinase functional assay has been used to test the compounds of the Examples disclosed.

human DYRK1A [3] = target: T1, human DYRK1A; experiment: Human DYRK1A kinase competitive binding assay (Ambit Biosciences); parameters: Ambit Biosciences (San Diego, Calif., USA), contract assay provider
Method: (I) Human DYRK1A Kinase Binding Assay and Binding Constant Measurements. Human DYRK1A kinase profiles in a competitive binding assay were performed by Ambit Biosciences (San Diego, Calif., USA). Activity was recorded via a competition binding assay of human DYRK1A kinase that was fused to a proprietary tag. Measurements of the amount of DYRK1A kinase bound to an immobilized, active-site directed ligand in the presence and absence of the test compound provided a percentage of DMSO control for binding of ligand. Activities between 1% and 10% were selected for Kd determination. Dendrogram representations were generated by an in-house visualization tool designated as PhyloChem. In certain embodiments, compounds have a low Kd value in the DYRK1A kinase binding assay. […] The human DYRK1A kinase binding assay has been used to test the compounds of the Examples disclosed.

[4] = Brain/plasma pharmacokinetics, single i.v. bolus in rats; format: in vivo, Sprague-Dawley rats; conditions: 10 mg/kg bolus i.v., normal rats; for Kp / concentration at 0.25 h / concentration at 1 h / concentration at 4 h: intravenous; for Kp: read-out: BAUC/PAUC Ratio; for AUC(0-t): read-out: AUC0-t of Plasma
Method: as §1, §2
The brain exposure of the compound of Example 1 is about […] higher than that required for inhibition of DYRK1A, with a Kd and IC50 at about 1 uM, or 280 ng/mL.

[5] = Sprague-Dawley, rat, iv, i.v. 2 mg/kg, plasma
[6] = Sprague-Dawley, rat, iv, i.v. 10 mg/kg, plasma
[7] = Sprague-Dawley, rat, plasma, iv, i.v. 2 mg/kg
[8] = Sprague-Dawley, rat, plasma, iv, i.v. 10 mg/kg
[9] = Sprague-Dawley, rat, po, p.o. 10 mg/kg, plasma

AUC(0-inf) [1, 5]: 316 ng·h/mL
AUC(0-t) [1, 5]: 312 ng·h/mL
half-life [1, 5]: 22.2 min
MRT inf [1, 5]: 21.9 min
MRT last [1, 5]: 19.9 min
AUC(0-inf) [1, 6]: 2350 ng·h/mL
AUC(0-t) [1, 6]: 2280 ng·h/mL
half-life [1, 6]: 45.9 min
MRT inf [1, 6]: 53.6 min
MRT last [1, 6]: 46.4 min
clearance [1, 7]: 106 mL/min/kg
Vd [1, 7]: 2.31 L/kg
clearance [1, 8]: 71.1 mL/min/kg
Vd [1, 8]: 3.81 L/kg
bioavailability ([1]; Sprague-Dawley, rat, plasma, po, p.o. 10 mg/kg, calculated using AUC0-inf, read-out: F (absolute oral bioavailability)): 34%
AUC(0-inf) [1, 9]: 544 ng·h/mL
AUC(0-t) [1, 9]: 541 ng·h/mL
Cmax [1, 9]: 1860 ng/mL
Tmax [1, 9]: 15 min
half-life [1, 9]: 49.3 min
MRT inf [1, 9]: 39.3 min
MRT last [1, 9]: 36.6 min
AUCExtra ([1]; i.v. 2 mg/kg, plasma): 1.49%
Co ([1]; i.v. 2 mg/kg, plasma): 1665 ng/mL
CL0-last ([1]; i.v. 10 mg/kg): 73.1 mL/min/kg
Vdss0-last ([1]; i.v. 10 mg/kg): 3.39 L/kg
Co ([1]; i.v. 10 mg/kg, plasma): 4100 ng/mL
AUCExtra ([1]; p.o. 10 mg/kg, plasma): 0.672%
pIC50 (human DYRK1A [2]): > 5.70 and ~6.00
pKd (human DYRK1A [3]): > 5.00 and > 6.00 and ~6.00
melting point: 178.3 to 180.7 °C
AUC0-t of Brain ([4]; t = 0.25 h): 2409 ng·h/g
AUC0-t of Brain ([4]; t = 1 h): 4727 ng·h/g
AUC0-t of Brain ([4]; t = 4 h): 5924 ng·h/g
AUC0-t of Brain ([4]; t = 8 h, the data is the value of AUC(inf)): 6020^b ng · h/g
AUC0-t of Brain ([4]; t = 24 h, the data is the value of AUC(inf)): 6020^b ng · h/g
Kp ([4]; Sprague-Dawley, rat, brain and plasma, 10 mg/kg, t = 0.25 h, BrainAUC(0-t)/PlasmaAUC(0-t)): 3.04
Kp ([4]; Sprague-Dawley, rat, brain and plasma, 10 mg/kg, t = 1 h, BrainAUC(0-t)/PlasmaAUC(0-t)): 2.81
Kp at 0.25 h ([4]; Sprague-Dawley, rat, brain and plasma, iv, 10 mg/kg, time 0.25 h, read-out: Brain/Plasma Ratio): 2.89
Kp at 1 h ([4]; Sprague-Dawley, rat, brain and plasma, iv, 10 mg/kg, time 1 h, read-out: Brain/Plasma Ratio): 2.17
Kp ([4]; Sprague-Dawley, rat, brain, 10 mg/kg, t = 4 h, BrainAUC(0-t)/PlasmaAUC(0-t)): 2.6
Kp ([4]; Sprague-Dawley, rat, brain, 10 mg/kg, t = 8 h): 2.56
Kp ([4]; Sprague-Dawley, rat, brain, 10 mg/kg, t = 24 h): 2.56
concentration at 0.25 h ([4]; Sprague-Dawley, rat, brain, time 0.25 h, read-out: Mean concentration in brain): 6900 ng/mL
concentration at 1 h ([4]; Sprague-Dawley, rat, brain, time 1 h, read-out: Mean concentration in brain): 1030 ng/mL
concentration at 4 h ([4]; Sprague-Dawley, rat, brain, time 4 h, read-out: Mean concentration in brain): 99.4 ng/mL
Kp at 4 h ([4]; Sprague-Dawley, rat, brain, iv, 10 mg/kg, time 4 h, read-out: Brain/Plasma Ratio): 1.69
concentration at 0.25 h ([4]; Sprague-Dawley, rat, plasma, time 0.25 h, read-out: Mean concentration in plasma): 2390 ng/mL
concentration at 1 h ([4]; Sprague-Dawley, rat, plasma, time 1 h, read-out: Mean concentration in plasma): 476 ng/mL
concentration at 4 h ([4]; Sprague-Dawley, rat, plasma, time 4 h, read-out: Mean concentration in plasma): 58.7 ng/mL
AUC(0-t) ([4]; Sprague-Dawley, rat, plasma, iv, 10 mg/kg, t = 0.25 h): 792 ng·h/mL
AUC(0-t) ([4]; Sprague-Dawley, rat, plasma, iv, 10 mg/kg, t = 1 h): 1680 ng·h/mL
AUC(0-t) ([4]; Sprague-Dawley, rat, plasma, iv, 10 mg/kg, t = 4 h): 2280 ng·h/mL
AUC(0-t) ([4]; Sprague-Dawley, rat, plasma, iv, 10 mg/kg, t = 8 h, the data is the value of AUC(inf)): 2350 ng·h/mL
AUC(0-t) ([4]; Sprague-Dawley, rat, plasma, iv, 10 mg/kg, t = 24 h, the data is the value of AUC(inf)): 2350 ng·h/mL
SMILES: Cc1nc2c(c3c1[nH]c1ccccc13)C(=O)CC(C)(C)C2 [Example 1, 3,3,6-trimethyl-2,3,4,7-tetrahydroindolo[2,3-c]quinolin-1-one]

pIC50 (human DYRK1A [2]): > 5.30
pKd (human DYRK1A [3]): > 6.00
SMILES: Cc1nc2c(c3c1[nH]c1cccc(F)c13)C(=O)CC(C)(C)C2 [Example 2, 11-fluoro-3,3,6-trimethyl-2,3,4,7-tetrahydroindolo[2,3-c]quinolin-1-one]

pIC50 (human DYRK1A [2]): > 5.70
pKd (human DYRK1A [3]): > 6.00
SMILES: Cc1nc2c(c3c1[nH]c1ccc(F)cc13)C(=O)CC(C)(C)C2 [Example 4, 10-fluoro-3,3,6-trimethyl-2,3,4,7-tetrahydroindolo[2,3-c]quinolin-1-one]

pKd (human DYRK1A [3]): > 5.30
SMILES: COc1ccc2[nH]c3c(C)nc4c(c3c2c1)C(=O)CC(C)(C)C4 [Example 6, 10-methoxy-3,3,6-trimethyl-2,3,4,7-tetrahydroindolo[2,3-c]quinolin-1-one]

pIC50 (human DYRK1A [2]): > 5.30
SMILES: Cc1nc2c(c3c1[nH]c1ccccc13)C(=O)CC(C)C2 (centres unmarked) [Example 8, 3,6-dimethyl-2,3,4,7-tetrahydroindolo[2,3-c]quinolin-1-one]

pIC50 (human DYRK1A [2]): > 5.30
SMILES: CCc1nc2c(c3c1[nH]c1ccccc13)C(=O)CC(C)(C)C2 [Example 10, 6-ethyl-3,3-dimethyl-2,3,4,7-tetrahydro-indolo[2,3-c]quinolin-1-one]

pIC50 (human DYRK1A [2]): > 5.30
SMILES: CC1(C)CC(=O)c2c(ncc3[nH]c4ccccc4c23)C1 [Example 11, 3,3-dimethyl-2,3,4,7-tetrahydroindolo[2,3-c]quinolin-1-one]

pIC50 (human DYRK1A [2]): > 5.00
SMILES: Cc1nc2c(c3c1[nH]c1ccccc13)C(=O)CC1(CCCCC1)C2 [Example 12, 6-methyl-3′H-spirocyclohexane-2,3,4,7-tetrahydroindolo[2,3-c]quinolin-1-one]

pIC50 (human DYRK1A [2]): > 5.30
SMILES: Cc1nc2c(c3c1[nH]c1ccc(Cl)cc13)C(=O)CC(C)(C)C2 [Example 13, 10-chloro-3,3,6-trimethyl-2,3,4,7-tetrahydroindolo[2,3-c]quinolin-1-one]

pIC50 (human DYRK1A [2]): > 5.00
SMILES: COc1ccc2[nH]c3cnc4c(c3c2c1)C(=O)CC(C)(C)C4 [Example 14, 10-methoxy-3,3-dimethyl-2,3,4,7-tetrahydroindolo[2,3-c]quinolin-1-one]

pIC50 (human DYRK1A [2]): > 5.30
SMILES: CCc1nc2c(c3c1[nH]c1cccc(F)c13)C(=O)CC(C)(C)C2 [Example 15, 11-fluoro-6-ethyl-3,3,-dimethyl-2,3,4,7-tetrahydroindolo[2,3-c]quinolin-1-one]

pIC50 (human DYRK1A [2]): > 5.70
SMILES: CCc1nc2c(c3c1[nH]c1ccc(F)cc13)C(=O)CC(C)(C)C2 [Example 16, 10-fluoro-6-ethyl-3,3,-dimethyl-2,3,4,7-tetrahydroindolo[2,3-c]quinolin-1-one]
